System: human prostate
Test: Contractile responses of human prostate
Type: cell-based
Conditions: isolated human prostatic tissue strips; antagonism of (−)-noradrenaline contractions; single antagonist concentration incubated 2 hours
Procedure: Contractile Responses of Human Prostate
Prostatic tissue was cut into longitudinal strips (approximately 3×2×10 mm) and suspended in organ baths under a resting tension of 1 g in Krebs Ringer bicarbonate of the following composition (mM): NaCl (119), KCl (4.7), CaCl2 (2.5), KH2PO4 (1.2), MgSO4 (1.2), NaHCO3 (25), glucose (11), and gassed with 95% O2/5% CO2. The solution also contained 10 […]. Tissues were exposed to a sensitising dose of (−)-noradrenaline ([…]) and washed over a 45 minute period. Isometric contractions were obtained in response to cumulative additions of (−)-noradrenaline to obtain control curves in all tissues. A further curve was then generated in the presence or absence of antagonist (incubated for 2 hours). Antagonist affinity estimates (pA2) were determined using a single concentration of competing antagonist, pA2=−log [A]/(DR−1) where the dose ratio (DR), relative to corresponding controls, was produced by a single concentration of antagonist [A], assuming competitive antagonism and Schild regression close to unity.

COc1cc2nc(N3CCCN(C(=O)N4CCOCC4)CC3)cc(N)c2c(-c2ncco2)c1OC [Example 28, 4-Amino-6,7-dimethoxy-2-[4-(4-morpholinecarbonyl)-1,4-diazepan-1-yl]-5-(oxazol-2-yl)quinoline] gave a pA2 value of 9.2.

From patent US6521629B2, “Quinoline and quinazoline compounds useful in therapy” (Pfizer Inc., priority 1997, dated 2003)
